Reference: US8937050B2, “Methods and compositions for treatment of autism” (The Johns Hopkins University, priority 2011, dated 2015)

Experiments:
XALD fibroblasts = test: Inhibition studies: ATP5B immunofluorescence of drug-induced mitochondrial biogenesis; type: cell-based, human; settings: four days; FIG. 2A
Method: Performed as described in Watkins et al., 1995 using 4% formaldehyde, 1% Triton X-100, primary antibody anti-ATP5B (Millipore, Billerica, Mass.) or anti-ABCD3 (Invitrogen, Carlsbad, Calif.), and secondary antibody sheep anti-mouse IgG FITC-conjugated (Santa Cruz Biotechnology, Santa Cruz, Calif.) or goat anti-rabbit IgG rhodamine-conjugated (Jackson ImmunoResearch, West Grove, Pa.).
Antimycin A (10 ng/mL), LY294002, PD98059, RO-31-8425, SB203580, SP600125, and L-NAME were obtained from Sigma. Compound C was from EMD Biosciences (Darmstadt, Germany). Human fibroblasts were treated with each inhibitor. Then, 45-75 min later, either 4PBA, HU, TSA, or SFN was added. Cells were stained four to six days after treatment with one of the small molecules. As a control for inhibitors dissolved in DMSO, fibroblasts were treated with an equivalent amount of DMSO in the absence of inhibitor. […]
In FIGS. 2A-B, the JNK inhibitor SP600125 (10 μM+inh) was utilized. […] XALD fibroblasts were treated with each drug for four days with or without SP600125. (400× magnification). […] Normal human fibroblasts were treated with each of the small four molecules with or without SP600125 for six days. Quantitative in-cell western analyses were performed using anti-ATP5B.

normal human fibroblasts = test: Quantitative in-cell western analysis with anti-ATP5B; type: cell-based; settings: six days, FIG. 2B
Method: The immunostaining of primary human fibroblasts with anti-ATP5B, DRAQ5 (Cell Signaling Technologies, Danvers, Mass.; a cellular DNA stain to normalize cell number), and secondary antibody IRDye 800CW donkey anti-mouse IgG (Li-cor Biosciences, Lincoln, Nebr.) was identical to the indirect immunofluorescence procedure described above and performed in duplicate. Imaging and quantification were performed using the Odyssey Imager (L1-cor Biosciences).
In FIGS. 2A-B, the JNK inhibitor SP600125 (10 μM+inh) was utilized. […] Normal human fibroblasts were treated with each of the small four molecules with or without SP600125 for six days. Quantitative in-cell western analyses were performed using anti-ATP5B.

JUN, PGC1α and PGC1β = test: RT-PCR of JUN and mitochondrial transcription factors; type: cell-based, human; settings: FIG. 2E; for PGC1α and PGC1β transcript levels (abundance of mitochondrial transcription factors): 48 hours or more of treatment; for JUN transcript levels: normal human fibroblasts, six hours of treatment
Method: (§1) Following the manufacturer's protocols, DNase I-treated cDNA was synthesized using Superscript III or Thermoscript reverse transcriptase (Invitrogen). PCR reactions were performed in duplicate on the Roche Lightcycler 3.5 (Basel, Switzerland) or the Bio-Rad iCycler (Hercules, Calif.) using Quantitech SYBR green PCR mix (Qiagen, Valencia, Calif.). GeNorm software calculated a normalization factor for each sample using the relative amounts of at least two of the following reference genes, β2-microglobulin, glyceraldehyde-6-phosphate, actin, and/or eukaryotic elongation factor 1A (Vandesompele et al., 2002).
The relative gene expression for each treatment compared to untreated normal human fibroblasts was calculated and the fold change (drug treated/untreated) is shown.

[1] = tested on: HSPA1A (HSP70), DNAJC3 (HSP40), HSP90AA1 (HSP90); test: RT-PCR of heat shock response (HSR) genes; type: cell-based, human; settings: for transcription of HSPA1A (HSP70): FIG. 3A
Method: as §1
Expression of key components of the HSR, UPR, the autophagic response, and the antioxidant response were monitored at the transcriptional, translational, and/or post-translational level. […] Due to the transient nature of these responses, several components of each pathway were monitored at various time points within a 24 hour treatment. At least two normal human fibroblast lines were tested in three or more independent experiments. […] The average of the maximal increase in protein expression within a 24 hour time frame was also compared to the untreated sample. Activation of each pathway was assessed by an increase in one or more components of each pathway.
To evaluate its activation, the expression of heat shock protein (HSP) 40, HSP 70, and HSP 90 family members was monitored. […] Normal human fibroblasts were treated and the mRNA expression of HSPA1A (HSP70), DNAJC3 (HSP40), and HSP90AA1 (HSP90) was measured and plotted as in FIG. 2E.

[2] = tested on: spinal muscular atrophy fibroblasts; test: Mitotracker Red CMXROS staining; type: cell-based, human; settings: 2.5 mM 4PBA, HU, 100 nM TSA or 2.5 mM SFN for 5 days; FIG. 7
Method: SMA type I (GM00232) fibroblasts were treated with 2.5 mM 4PBA, 300 mM HU, 100 nM TSA or 2.5 mM SFN for 5 days, live stained with 25 nM Mitotracker Red CMXROS (Invitrogen) in pre-warmed MEM media for 15 min at 37° C. in a CO2 incubator. Stained cells were washed with pre-warmed MEM, washed with PBS and excess PBS was removed. The cells were examined under the microscope at ×80.
Spinal muscular atrophy fibroblasts were treated with 2.5 mM 4PBA, 300 mM HU, 100 nM TSA or 2.5 mM SFN for 5 days (×80 magnification).

human recombinant SIRT1 = target: T1, human recombinant SIRT1 (Homo sapiens, UniProt Q96EB6); test: Fluorescence-based SIRT1 activity assay; type: biochemical; settings: for SIRT1 activity: low and high (10 times) concentration, FIG. 9
T1 construct: purchased Cayman Chemical Company 10010401
T1 sequence (Q96EB6 1-747): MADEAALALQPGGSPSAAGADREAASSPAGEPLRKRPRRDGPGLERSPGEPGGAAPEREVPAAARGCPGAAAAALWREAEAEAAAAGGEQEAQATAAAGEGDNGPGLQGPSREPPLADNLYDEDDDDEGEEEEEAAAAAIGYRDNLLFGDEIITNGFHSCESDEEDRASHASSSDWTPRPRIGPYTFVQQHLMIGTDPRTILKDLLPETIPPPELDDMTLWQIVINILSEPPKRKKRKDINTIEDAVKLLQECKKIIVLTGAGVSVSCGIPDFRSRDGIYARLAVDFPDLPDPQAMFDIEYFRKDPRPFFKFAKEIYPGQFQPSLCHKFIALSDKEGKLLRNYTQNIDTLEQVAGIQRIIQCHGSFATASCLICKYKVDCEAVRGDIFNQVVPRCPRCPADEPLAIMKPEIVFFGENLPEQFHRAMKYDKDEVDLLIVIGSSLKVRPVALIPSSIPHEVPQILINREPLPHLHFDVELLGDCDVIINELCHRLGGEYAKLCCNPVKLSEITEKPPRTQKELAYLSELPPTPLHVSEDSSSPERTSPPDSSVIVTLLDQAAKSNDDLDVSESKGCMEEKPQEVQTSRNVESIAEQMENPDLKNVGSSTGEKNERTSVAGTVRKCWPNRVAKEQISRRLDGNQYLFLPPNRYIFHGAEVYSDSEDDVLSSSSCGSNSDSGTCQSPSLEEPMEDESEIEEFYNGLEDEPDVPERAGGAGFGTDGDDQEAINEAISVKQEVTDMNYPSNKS
Method: A fluorescence-based SIRT1 activity assay was performed in triplicate following the manufacturer's protocol (10010401; Cayman Chemical Company, Ann Arbor, Mich., USA). The percent developer interference was below 3% for each small molecule. The percent fluorophore interference was below 9% for each small molecule. The acceptable interference values were ≦10%.
To determine whether SIRT1 activation was a common biochemical activity of the small molecules under study, a fluorescence-based in vitro SIRT1 activity assay was performed with two concentrations of each drug: that used to treat normal primary human fibroblasts in the experiments reported here (low), and 10 times that concentration, which is lethal in cell culture (high). […] This was a non-cell-based assay, and therefore, it is difficult to determine the effects of 4PBA and SFN on SIRT1 activity in vivo. Regardless, while SIRT1 activation may play a role in the induction of cellular stress responses (Anastasiou et al., 2006), direct biochemical activation or inhibition of SIRT1 is not necessary for the common pharmacological induction of the adaptive cell survival response by all four small molecules.
SIRT1 activity assay. SIRT1 activity was measured by incubating an acetylated lysine substrate with human recombinant SIRT1, cosubstrate NAD+ and the indicated concentration of each small molecule. The percent inhibition of SIRT1 is plotted. (Bars=SEM for triplicate measurements; *p≦0.05; paired t-test).

Sickle Cell Disease = settings: Hsiao et al., 2006; cited from earlier work
Spinal Muscular Atrophy = settings: Lunn et al., 2008; cited from earlier work

| Compound | mitochondrial biogenesis in XALD fibroblasts (XALD fibroblasts) | mitochondrial mass (ATP5B) compared to untreated cells (normal human fibroblasts) [fold] | PGC1α and PGC1β transcript levels (abundance of mitochondrial transcription factors) (JUN, PGC1α and PGC1β) | JUN transcript levels (JUN, PGC1α and PGC1β) | transcription of HSPA1A (HSP70) ([1]; normal human fibroblasts) | mitochondrial biogenesis (Mitotracker staining) [2] | inhibition of SIRT1 activity (human recombinant SIRT1; 50 mM, high) [%] | Therapeutic Effect (Sickle Cell Disease) | Therapeutic Effect (Spinal Muscular Atrophy) | SIRT1 activity (human recombinant SIRT1) | transcription of HSP40 increase ([1]; in vitro sulforaphane studies) [fold] | transcription of HSP70 increase ([1]; in vitro sulforaphane studies) [fold] | transcription of HSP 90 increase ([1]; in vitro sulforaphane studies) [fold] | mRNA expression of heat-shock proteins genes increase ([1]; normal human fibroblasts, 5 micromolar (μM)) | inhibition at 5000 µM (human recombinant SIRT1; 5 mM) [%] | inhibition at 50000 µM (human recombinant SIRT1; 50 mM) [%] |
| --- | --- | --- | --- | --- | --- | --- | --- | --- | --- | --- | --- | --- | --- | --- | --- | --- |
| 4-phenylbutyrate [4PBA] | increased | 2.4 | increased | significantly increased | increased | induced | 54 | increase F-cell production | increase percentage of full |  |  |  |  |  |  |  |
| NC(=O)NO [HU, hydroxyurea] | increased | 1.8 | increased | significantly increased | not stimulated | induced |  | increase F-cell production | increase percentage of full | no effect |  |  |  |  |  |  |
| C[S@@+]([O-])CCCCN=C=S [SFN, 1-isothiocyanato-4R-(methylsulfinyl)butane] | increased | 2.2 | increased | not consistently changed | increased | induced |  |  |  |  | 3 | 7 | 3 | 3-7 fold | 14 | 40 |
| CC(/C=C/C(=O)NO)=C\[C@@H](C)C(=O)c1ccc(N(C)C)cc1 [TSA, trichostatin A] | increased | 2.5 | increased | significantly increased | increased | induced |  | increase F-cell production | increase percentage of full | no effect |  |  |  |  |  |  |
